Measured values published in patent US7858578B2, “Methods of inducing neuronal growth by a Fucose-α(1-2) galactose (fuc-α(1-2) gal) moiety and a lectin” (California Institute of Technology, priority 2004, dated 2010).

Key:
[1] = tested on: hippocampal neurons; experiment: Binding of biotinylated probe to cultured hippocampal neurons (streptavidin-AlexaFluor 488 imaging); format: cell-based, rat; details: 3 mM, 10 μM PAO; for labeling of neurons after de-lipidation: neurons de-lipidated with MeOH/CHCl3; for binding to hippocampal neurons: 1 h, E18 neurons 23 days in vitro
Experimental: Hippocampal neurons were cultured using a procedure modified from Goslin and Banker, in Culturing Nerve Cells, Banker, G., Goslin, K., Eds., pp. 251-281, MIT Press: Cambridge, Mass. 1991. Briefly, the hippocampi of embryonic day 18 (E18) rats were dissected and transferred to 4.5 mL of ice-cold Calcium and Magnesium Free-Hank's Balanced Salt Solution (CMF-HBSS). Trypsin (2.5%, no EDTA) was added to 5 mL, and the tissue was incubated for 15 min at 37° C. The trypsin solution was removed and the tissue sample washed three times with 5 mL of CMF-HBSS. Cells were then dissociated from the tissue in 1 mL of CMF-HBSS by passing through a P1000 pipet tip twenty times. The cells were counted, diluted into Minimal Eagle's Medium (MEM) plus 10% fetal bovine serum, and seeded on poly-DL-ornithine-coated glass coverslips (Carolina Biological) at a density of 75 cells/mm2 (100 μL/coverslip) for 30 min. After this time, 500 μL of supplemented Neurobasal medium (47.5 mL Neurobasal medium without Lglutamine; 0.5 mL L-glutamine (200 mM); 0.5 mL penicillin/streptomycin (10,000 U/mL); 0.5 mL antibiotic-antimycotic (100× stock), 1.0 mL B-27 serum-free supplement (50× stock); 50 μL of 0.5 M kynurenic acid in 1 N NaOH) was added to each coverslip. The use of kynurenic acid to block glutamate receptor ion channels and enhance neuronal health and survival is standard protocol for neuronal cultures. Id. The cultures were maintained in 5% CO2 at 37° C. in supplemental Neurobasal medium.
After 23 days in culture, the medium was replaced, and neurons were treated with the endocytosis inhibitor phenylarsine oxide (PAO; 4 μL in DMSO, final concentration 10 μM) (Nouel, D., et al., J. Neurosci. 17:1795-1803 (1997)) and either compound III (24 μL in PBS, final concentration 3 mM), or biotin (24 μL in PBS, final concentration 3 mM), in supplemented Neurobasal medium (400 μL final volume) for 1 h at 37° C., 5% CO2. After 1 h, neurons were rinsed 2 times with PBS, fixed in 4% paraformaldehyde for 20 min at rt, washed 2 times with PBS, permeabilized in 0.3% Triton X-100 for 5 min at rt, and washed 2 times with PBS. Non-specific binding was blocked with 3% BSA for 1 h at rt and then rinsed one time with PBS. Compound III was detected with streptavidin conjugated to AlexaFluor 488 (1:200, Molecular Probes). Dye-conjugated streptavidin was added in 3% BSA for 1 h at 37° C. and the excess reagent washed off 5 times with PBS. Coverslips were then mounted onto slides with Vectashield, sealed, and imaged using confocal laser microscopy. Results can be seen in FIG. 2.
De-lipidation was performed on some samples following the protocol of Yavin, E. et al., J. Neurosci. Res. 9:229-237 (1983). Briefly, after 23 days in culture, cells were rinsed once with PBS then exposed to MeOH/CHCl3 (½ by vol.) for 15 min at −80° C. This procedure fixes the cells to the coverslip and extracts cellular lipids. After removing the MeOH/CHCl3 mixture, coverslips were dried at rt then incubated with 3% BSA for 1 hr at rt. After one rinse with PBS, neurons were treated with PAO and the procedure described above was followed.

[2] = tested on: hippocampal neurons; experiment: Neurite outgrowth of hippocampal neurons treated with carbohydrate-PAA conjugates; format: cell-based, rat; details: FIG. 4B, concentration and valency series
Experimental: Hippocampal neurons were cultured using a procedure modified from Goslin and Banker, in Culturing Nerve Cells, Banker, G., Goslin, K., Eds., pp. 251-281, MIT Press: Cambridge, Mass. 1991. Briefly, the hippocampi of embryonic day 18 (E18) rats were dissected and transferred to 4.5 mL of ice-cold Calcium and Magnesium Free-Hank's Balanced Salt Solution (CMF-HBSS). Trypsin (2.5%, no EDTA) was added to 5 mL, and the tissue was incubated for 15 min at 37° C. The trypsin solution was removed and the tissue sample washed three times with 5 mL of CMF-HBSS. Cells were then dissociated from the tissue in 1 mL of CMF-HBSS by passing through a P1000 pipet tip twenty times. The cells were counted, diluted into Minimal Eagle's Medium (MEM) plus 10% fetal bovine serum, and seeded on poly-DL-ornithine-coated glass coverslips (Carolina Biological) at a density of 75 cells/mm2 (100 μL/coverslip) for 30 min. […]
The association of Fucα(1-2)Gal with potential lectins was studied to determine if it would stimulate neuronal growth. […] The cultures were incubated in 5% CO2 at 37° C. and analyzed. […]
For each experiment, 50 randomly selected cells were analyzed per coverslip using similar quantitative analysis techniques reported by Schmid et al., J. Neurosci. […] Briefly, only neurites longer than ˜10 μm and not in contact with other cells were measured using NIH Image 1.62 software. […]

Which results are given for `C[C@@H]1O[C@@H](O[C@H]2[C@H](OCCOCCNC(=O)CCCC[C@@H]3SC[C@@H]4NC(=O)N[C@@H]43)O[C@H](CO)[C@H](O)[C@@H]2O)[C@@H](O)[C@H](O)[C@@H]1O` [Compound III]?
labeling of neurons after de-lipidation [1]: labeling was not diminished; labeling of neurons after de-lipidation ([1]; listed as probe III): does not alter the labeling; binding to hippocampal neurons [1]: binds; binding to hippocampal neurons ([1]; listed as compound III): binding of compound III to the cell body and neurite processes; neurite outgrowth activity [2]: only modest activity
